{"source": "patent US20230364007A1", "about": "“ADMINISTRATION OF A P[…]” (Reset Pharmaceuticals, Inc., priority 2022, published 2023)", "key": {"[1]": {"experiment": "Particle size distribution (PSD) analysis by laser diffraction", "assay_type": "physicochemical", "conditions": "primary pressure of 4 bar, lens R1, R3 or R5 per sample", "protocol": "(§1) In order to provide a small and homogeneous particle size of psychedelic compound in the final suspensions, psilocybin and psilocin were micronised before use. Micronisation was performed by wet bead milling using decafluoropentane as the antisolvent. In a glass vial, 200 mg psychedelic compound and 2 g of 1 mm silica beads were weighed. 3 mL of the antisolvent was added for psilocybin and 2 mL for psilocin. The samples were vortexed for approximately 15 seconds then milled at 530 rpm for 60 minutes.\n(§2) The micronised sample was then separated from the silica beads and transferred to a petri dish and left at room temperature to allow for evaporation of the solvent overnight (approximately 18 hours). The dried sample was then collected and characterised by PSD and XRPD.\nParticle size analysis was carried out, in single analysis, by laser diffraction using a Sympatec Helos particle size analyser, equipped with a RODOS dry dispersion unit and ASPIROS feeder unit. The lens and primary pressures were varied for each compound tested."}, "XRPD after micronisation": {"experiment": "XRPD after micronisation", "assay_type": "physicochemical", "conditions": "wet bead milling in decafluoropentane", "protocol": "as §1, §2\nX-ray powder diffraction (XRPD) analysis was carried out using a Bruker D2 Phaser powder diffractometer equipped with a LynxEye detector. The specimens were located at the centre of a silicon sample holder within a 5 mm pocket. The samples were continuously spun during data collection and scanned using a step size of 0.02° two theta (2θ) between 5° to 60° two theta, the detailed parameters are summarised in Table 10. The data was processed using Diffrac Plus EVA software (Version 3.1)."}, "[2]": {"experiment": "Solubility in excipients (preparative work)"}, "[3]": {"conditions": "reported; cited from earlier work"}, "[4]": {"experiment": "Human simulations of psilocin exposure after SC administration", "conditions": "from absorption rate of rat SC model", "protocol": "The model that was used is shown schematically in FIG. 6, mathematically the analytical solution is shown in equations (9)-(14).\nUsing the absorption rate from modelling the rat SC data and the human systemic psilocin PK parameters, human SC simulations were run over 1-12 mg doses and the simulated PK profiles can be seen in FIG. 7. […] These profiles can be seen in FIG. 8, with the summary statistics in Table 4."}, "[5]": {"experiment": "Two-compartment IV bolus PK model fitted to published human psilocybin IV data", "conditions": "psilocin after 1 mg psilocybin IV", "protocol": "All analysis was performed using the software R and RStudio, with models being defined using analytical and ODE solutions.\nDerivation of system PK parameters for psilocybin/psilocin Systemic PK parameters were derived for published human bolus psilocybin IV data.\nHuman IV PK data for psilocin after psilocybin was administered was taken from Hasler et al. “Determination of psilocin and 4-hydroxyindole-3-acetic acid in plasma by HPLC-ECD and pharmacokinetic profiles of oral and intravenous psilocybin in man”. Pharm Acta Helv. 1997 June; 72(3):175-84. Model selection was performed by assessing visual fit to data and the respective model AIC's of a one compartment and two compartment IV PK model. These systemic human PK parameters were then used for human […] injection simulations by simulating the PK profiles over a range of doses and absorption rates.\nIt is assumed that the generation of psilocin is instantaneous and complete once psilocybin is absorbed.\nAn IV two compartment model best described the IV data from FIG. 2. A two-compartment model gave a good description of the raw data capturing the Cmax and terminal phase well, FIG. 3. The systemic PK parameters can be seen in Table 1 and there are low errors in the parameter estimates."}, "[6]": {"experiment": "One compartment SC PK model of psilocin fitted to digitised rat SC data", "protocol": "Rat SC PK data was digitised for four dose levels (Higgins, G. A. et al., 2021. “Low Doses of Psilocybin and Ketamine Enhance Motivation and Attention in Poor Performing Rats: Evidence for an Antidepressant Property”. Frontiers in Pharmacology, Volume 12, p. 299). The PK was fitted using a one compartment SC model where volume was fixed to the same as human in L/kg. The model was fit to the lower 3 doses levels as the higher dose was determined to be out of the range of investigation.\nA one compartment model was used with linear absorption and clearance shown schematically in […]. Mathematically, this model is a series of two linked ordinary differential equations (ODE's) given in equations (7)-(8).\nConstant ka is the absorption rate constant (units 1/h), Cl is the clearance (units mL/h), Vc is the volume of distribution of the central compartment (units mL).\nIt is assumed that the generation of psilocin is instantaneous once psilocybin is absorbed. Due to a lack of rat IV PK data and human and rat plasma protein binding data, total rat volume of distribution (V) on ml/kg basis was fixed to the same as human total volume of distribution. A one compartment SC model gives a satisfactory fit to the absorption phase, seen in FIG. 5, this gives good confidence of the fitted ka value seen in Table 2. Bioavailability was again assumed to be 1."}, "[7]": {"conditions": "psilocin after SC psilocybin, rat, fit to 0.05, 0.1, 1 mg/kg"}}}
{"compound": "CN(C)CCc1c[nH]c2cccc(OP(=O)(O)O)c12", "note": "[Micronised psilocybin]", "values": [{"measurement": "D10", "setting": "[1]", "result": 0.45, "unit": "μm"}, {"measurement": "D50", "setting": "[1]", "result": 1.20, "unit": "μm"}]}
{"compound": "CN(C)CCc1c[nH]c2cccc(O)c12", "note": "[Micronised psilocin]", "values": [{"measurement": "D10", "setting": "[1]", "result": 0.44, "unit": "μm"}]}
{"compound": "CN(C)CCc1c[nH]c2cccc(OP(=O)(O)O)c12", "note": "[psilocybin, [3-(2-dimethylaminoethyl)-1H-indol-4-yl] dihydrogen phosphate]", "values": [{"measurement": "chemical degradation upon micronisation (XRPD)", "setting": "XRPD after micronisation", "result": "no significant chemical degradation upon micronisation"}, {"measurement": "solubility in all the excipients tested", "setting": "[2]; non-micronised, 20 excipients", "result": "poor"}, {"measurement": "bioavailability", "setting": "[3]", "result": "approximately 50%"}]}
{"compound": "CN(C)CCc1c[nH]c2cccc(O)c12", "note": "[psilocin, 4-hydroxy-N,N-dimethyltryptamine]", "values": [{"measurement": "absorption half-life", "setting": "[4]", "result": 17.9, "unit": "min"}, {"measurement": "chemical degradation upon micronisation (XRPD)", "setting": "XRPD after micronisation", "result": "no significant chemical degradation upon micronisation"}, {"measurement": "Cl, clearance (95% CI)", "setting": "[5]", "result": "3810 (3340, 4290) ml/min"}, {"measurement": "V, volume of distribution of the central compartment (95% CI)", "setting": "[5]", "result": "88600 (77300, 99900) ml"}, {"measurement": "k12 (95% CI)", "setting": "[5]", "result": "0.176 (0.144, 0.208) /min"}, {"measurement": "k21 (95% CI)", "setting": "[5]", "result": "0.0489 (0.0388, 0.0591) /min"}, {"measurement": "solubility versus pH", "setting": "[2]; initial solution trials", "result": "higher solubility at acidic pH"}, {"measurement": "solubility in DMSO and NMP", "setting": "[2]; non-micronised", "result": "good"}, {"measurement": "dose normalised AUC", "setting": "[6]; 10 mg/kg SC psilocybin dose in rats versus other doses (not shown)", "result": "considerably greater than the other doses"}, {"measurement": "Cl (95% CI)", "setting": "[6]; [7]", "result": "2490 (2260, 2710) mL/h"}, {"measurement": "ka, absorption rate constant (95% CI)", "setting": "[6]; [7]", "result": "2.32 (2.03, 2.61) /h"}, {"measurement": "V", "setting": "[6]; rat, fixed to human total volume of distribution on ml/kg basis", "result": "1746 (Fixed) mL"}]}
